Measured values published in publication PMC7738869, “A novel STAT3 inhibitor W2014-S regresses human non-small cell lung cancer xenografts and sensitizes EGFR-TKI acquired resistance” (Theranostics, 2021).
“And” between values parts separate entries of the source, which are not always exact repeats. Equal values may be shown once. Read-outs that look alike come from different tables or passages of the source.

Columns and labels:
Pharmacokinetic study = assay type: in vivo, SD rats; details: for AUC(0-inf): read-out: AUC0-inf
Protocol: W2014-S was given to SD rats (male, 230-260g, n = 6) by gavage and intravenous administration. The rats were fasted for 12 h before administration and remained fasting for 2 h. For oral gavage, W2014-S was dissolved in DMSO/0.5% HPMC (5/95, v/v/), and W2014-S was dissolved in DMSO/EtOH/PEG300/0.9% NaCl (5/5/40/50, v/v/v/v) for intravenous administration. The pharmacokinetic (PK) profiles were next evaluated in SD rats.

STAT3-STAT3 dimerization = STAT3-STAT3 dimerization (Homo sapiens, UniProt P40763); assay: Co-immunoprecipitation of HA-STAT3 and Flag-STAT3 in A549 cells; assay type: cell-based; set-up: expressed in transfected cells; host or cells: A549; details: A549, 0, 0.3, 1 μM, 24 h
Protocol: Cells or tumor tissue were lysed with RIPA buffer (Beyotime, Shanghai, China) supplemented with protease inhibitors (Beyotime, Shanghai, China) and phosphatase inhibitors (Bimake, USA). Lysates were denatured by heating for 5 min at 99 °C and loaded on 4-10% SDS-polyacrylamide gel electrophoresis. Then the proteins were transferred to polyvinylidene fluoride (PVDF) membranes (Millipore, USA). The membranes were blocked and probed with primary antibodies and secondary HPR-conjugated antibodies. At last the membranes were detected by chemiluminescence (Tanon, Shanghai, China). For co-immunoprecipitation experiments, 293T cells were plated and grew to about 80% confluency, then co-transfected with plasmids of HA-STAT3 and Flag-STAT3 using Lipofectamine 2000. After 24 h, cells were treated with different concentrations of W2014-S for following 24 h, and stimulated with IL-6 (100 ng/mL) for 1 h. Cells were lysed with IP RIPA buffer (Beyotime, Shanghai, China) supplemented with protease inhibitors (Beyotime, Shanghai, China) and phosphatase inhibitors (Bimake, America), and lysates were cultured with Anti-flag Affinity Gel (B23102, Bimake, USA) overnight at 4 ℃. The gel was washed by PBST for three times and added 1×loading buffer and denatured by heating for 5 min at 99 ℃. Then the proteins were resolved on SDS-PAGE, transferred to PVDF membranes and analysed with immunoblotting.

PC-9 cells = assay: Cell viability assay (CCK-8), PC-9; assay type: cell-based; details: Homo sapiens, PC-9, 72 h, read-out: IC50 cell proliferation
Protocol: (§1) Cell proliferation was measured using the Cell Counting Kit-8 (CCK-8, B34304, Bimake, USA). A549 (2 × 10^3/100 μL/well), PC-9 (3 × 10^3/100 μL/well) or PC-9/GR cells (3 × 10^3/100 μL/well) were plated into each well of 96-well plates (Costar, USA). […] Then, 10 μL of CCK-8 was added to each well, and cells were incubated for 1-4 h until the color of untreated controls turned to orange. The absorbance (A) was measured by a microplate reader (FLUOstar Omega-ACU, USA) at test and reference wavelengths of 450 nm. The percentage of growth was calculated as Cell viability (%) = [A (Compound +) - A (Blank) ] / [A (Compound -) - A (Blank) ] × 100%. Cell viability meant proliferation of cells. Each experiment was done at least in triplicate, and thrice independently.

A549 cells = assay: Cell viability assay (CCK-8), A549; assay type: cell-based; details: Homo sapiens, A549, 72 h, read-out: IC50 cell proliferation, A549, 72 h
Protocol: as §1

Acute toxicity study = assay type: in vivo; details: KM mice, 100, 300 and 500 mg/kg i.p., observed 14 days
Protocol: KM mice (4-5 weeks of age, weighing 18-22g, both male and female) for acute toxicity experiment were provided from the Experimental Animal Center of Sun Yat-sen University (Guangdong, China) and were housed in a specific pathogen-free facility. To test the acute toxicity, 40 mice were randomly distributed into 4 groups, and treated with W2014-S at 100 mg/kg, 300 mg/kg, and 500 mg/kg by intraperitoneal injection. Each group have 10 mice (half male and half female). […] All animal experiments were approved by the Research Ethics Committee of Sun Yat-sen University (SYSU-IACUC-2020-000312).

[1] = male, Sprague-Dawley (SD), rat, plasma, iv, 3 mg/kg, SD rats, 3 mg/kg iv, mean
[2] = male, Sprague-Dawley (SD), rat, plasma, po, 10 mg/kg, SD rats, 10 mg/kg po, mean
[3] = rat, i.v. 3 mg/kg, individual animals 4-6, 3 mg/kg
[4] = rat, p.o. 10 mg/kg, individual animals 1-3, 10 mg/kg

STAT3-STAT3 dimerization, sequence (P40763 whole entry): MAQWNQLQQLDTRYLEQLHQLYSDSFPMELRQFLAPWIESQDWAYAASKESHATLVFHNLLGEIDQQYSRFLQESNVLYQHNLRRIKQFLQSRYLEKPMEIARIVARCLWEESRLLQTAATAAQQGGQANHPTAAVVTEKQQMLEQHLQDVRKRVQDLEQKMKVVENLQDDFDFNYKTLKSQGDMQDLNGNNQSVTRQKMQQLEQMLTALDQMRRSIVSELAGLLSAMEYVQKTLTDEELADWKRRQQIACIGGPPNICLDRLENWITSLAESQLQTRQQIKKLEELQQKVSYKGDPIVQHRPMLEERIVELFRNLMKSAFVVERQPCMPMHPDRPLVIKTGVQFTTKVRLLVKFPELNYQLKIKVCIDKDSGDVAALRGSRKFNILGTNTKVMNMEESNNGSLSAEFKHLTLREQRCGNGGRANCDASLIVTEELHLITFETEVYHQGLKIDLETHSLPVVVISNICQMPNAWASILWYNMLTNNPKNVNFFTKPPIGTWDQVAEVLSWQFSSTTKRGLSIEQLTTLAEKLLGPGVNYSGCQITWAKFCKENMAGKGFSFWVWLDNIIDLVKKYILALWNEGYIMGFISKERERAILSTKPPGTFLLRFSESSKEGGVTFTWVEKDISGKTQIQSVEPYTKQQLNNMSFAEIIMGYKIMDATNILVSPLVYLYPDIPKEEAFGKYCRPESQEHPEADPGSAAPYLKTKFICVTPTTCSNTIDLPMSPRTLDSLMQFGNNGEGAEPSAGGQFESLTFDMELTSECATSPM

C[C@H](Oc1ccc(-c2nc3nc(C4=CCN(C(=O)OC(C)(C)C)CC4)ccc3[nH]2)cc1)c1ccccc1 [W2014-S]
AUC(0-t) (Pharmacokinetic study; male, SD, rat, plasma, po, 10 mg/kg, rat, p.o. 10 mg/kg, individual animals 1-3, read-out: AUClast): 0.0546 µg·h/mL
half-life (Pharmacokinetic study; [1]): 13.6 h
AUC(0-inf) (Pharmacokinetic study; [1]): 0.244 µg·h/mL
AUC(0-t) (Pharmacokinetic study; male, Sprague-Dawley (SD), rat, plasma, iv, 3 mg/kg, SD rats, 3 mg/kg iv, mean, read-out: AUC0-last): 0.222 µg·h/mL
clearance (Pharmacokinetic study; male, Sprague-Dawley (SD), rat, plasma, iv, 3 mg/kg, SD rats, 3 mg/kg iv, mean, read-out: CL): 12.3 L/h/kg
half-life (Pharmacokinetic study; [2]): 1.46 h
AUC(0-inf) (Pharmacokinetic study; [2]): 0.0561 µg·h/mL
AUC(0-t) (Pharmacokinetic study; male, Sprague-Dawley (SD), rat, plasma, po, 10 mg/kg, SD rats, 10 mg/kg po, mean, read-out: AUC0-last): 0.0546 µg·h/mL
Cmax (Pharmacokinetic study; male, Sprague-Dawley (SD), rat, plasma, po, 10 mg/kg, SD rats, 10 mg/kg po, mean, read-out: Cmax): 0.0238 µg/mL
Tmax (Pharmacokinetic study; male, Sprague-Dawley (SD), rat, plasma, po, 10 mg/kg, SD rats, 10 mg/kg po, mean, read-out: Tmax): 1.67 h
MRT inf (Pharmacokinetic study; male, Sprague-Dawley (SD), rat, plasma, po, 10 mg/kg, rat, p.o. 10 mg/kg, mean, read-out: MRTINF_obs): 2.61 h
Vd (Pharmacokinetic study; male, Sprague-Dawley (SD), rat, plasma, SD rats, 3 mg/kg iv, mean, read-out: Vss): 77.5 L/kg
bioavailability (Pharmacokinetic study; male, Sprague-Dawley (SD), rat, plasma, SD rats, 10 mg/kg po vs 3 mg/kg iv): 7.39%
Concentration in rat plasma, individual animals 1-3 (Pharmacokinetic study; p.o. 10 mg/kg, 0.25 h, 10 mg/kg): 29.9 ng/mL and 7.10 ng/mL and 21.9 ng/mL
Concentration in rat plasma, individual animals 1-3 (Pharmacokinetic study; p.o. 10 mg/kg, 0.50 h, 10 mg/kg): 10.0 ng/mL and 27.4 ng/mL and 30.0 ng/mL
Concentration in rat plasma, individual animals 1-3 (Pharmacokinetic study; p.o. 10 mg/kg, 1.00 h, 10 mg/kg): 8.00 ng/mL and 18.7 ng/mL and 21.7 ng/mL
Concentration in rat plasma, individual animals 1-3 (Pharmacokinetic study; p.o. 10 mg/kg, 2.00 h, 10 mg/kg): 9.40 ng/mL and 6.60 ng/mL
Concentration in rat plasma, individual animals 1-3 (Pharmacokinetic study; p.o. 10 mg/kg, 4.00 h, 10 mg/kg): 13.9 ng/mL and 4.80 ng/mL (2×)
Concentration in rat plasma, individual animals 1-3 (Pharmacokinetic study; p.o. 10 mg/kg, 8.00 h, 10 mg/kg): 1.20 ng/mL and 0.400 ng/mL and 0.300 ng/mL
Concentration in rat plasma, individual animals 1-3 (Pharmacokinetic study; p.o. 10 mg/kg, 24.0 h, BLQ: Below LLOQ (LLOQ = 0.3 ng/mL)): BLQ
AUCINF_obs (Pharmacokinetic study; [3]): 0.247 µg·h/mL and 0.255 µg·h/mL
AUClast (Pharmacokinetic study; [3]): 0.22 µg·h/mL and 0.236 µg·h/mL
CL_obs (Pharmacokinetic study; [3]): 12.1 L/h/kg and 11.8 L/h/kg
MRTINF_obs (Pharmacokinetic study; [3]): 7.48 h and 5.59 h
T1/2 (Pharmacokinetic study; [3]): 14.2 h and 11.2 h
Vss_obs (Pharmacokinetic study; [3]): 76.143 L/kg and 90.763 L/kg and 65.72 L/kg
Vss_obs (Pharmacokinetic study; rat, i.v. 3 mg/kg, mean): 77.542 L/kg
AUCINF_obs (Pharmacokinetic study; [4]): 0.0553 µg·h/mL and 0.055 µg·h/mL
AUClast (Pharmacokinetic study; [4]): 0.0545 µg·h/mL
Cmax (Pharmacokinetic study; [4]): 0.0139 µg/mL and 0.0274 µg/mL and 0.03 µg/mL
MRTINF_obs (Pharmacokinetic study; [4]): 3.89 h and 2.08 h and 1.87 h
T1/2 (Pharmacokinetic study; [4]): 1.88 h and 1.29 h
Tmax (Pharmacokinetic study; [4]): 4.00 h and 0.50 h (2×)
dimerization of HA-STAT3 and Flag-STAT3 (STAT3-STAT3 dimerization): inhibited by W2014-S in a dosage-dependent manner
IC50 (PC-9 cells): 2.36 µM
IC50 (A549 cells): 0.89 µM
acute toxicity: body weights and signs of toxicity (Acute toxicity study): no significant changes in body weights, or obvious signs of toxicity
